Test results published in US9974825B2, “Peptides Des-[Asp1]-[Ala1], angiotensin-(1-7) agonist and pharmaceutical compositions for the treatment of diseases” (UNIVERSIDADE FEDERAL DE MINAS GERAIS, priority 2008, dated 2018).

How the values were obtained:
[1] = biological target: T1, angiotensin converter enzyme (ACE) (Rattus norvegicus, UniProt P47820); test: Plasmatic ACE activity, fluorimetric method with Hip-His-Leu substrate; assay type: biochemical, Wistar rats; settings: 5 mM enalaprilate, assay specificity control
T1 construct: from tissue; host or cells: plasma of Wistar rats
T1 sequence (P47820 36-1238 limits assumed): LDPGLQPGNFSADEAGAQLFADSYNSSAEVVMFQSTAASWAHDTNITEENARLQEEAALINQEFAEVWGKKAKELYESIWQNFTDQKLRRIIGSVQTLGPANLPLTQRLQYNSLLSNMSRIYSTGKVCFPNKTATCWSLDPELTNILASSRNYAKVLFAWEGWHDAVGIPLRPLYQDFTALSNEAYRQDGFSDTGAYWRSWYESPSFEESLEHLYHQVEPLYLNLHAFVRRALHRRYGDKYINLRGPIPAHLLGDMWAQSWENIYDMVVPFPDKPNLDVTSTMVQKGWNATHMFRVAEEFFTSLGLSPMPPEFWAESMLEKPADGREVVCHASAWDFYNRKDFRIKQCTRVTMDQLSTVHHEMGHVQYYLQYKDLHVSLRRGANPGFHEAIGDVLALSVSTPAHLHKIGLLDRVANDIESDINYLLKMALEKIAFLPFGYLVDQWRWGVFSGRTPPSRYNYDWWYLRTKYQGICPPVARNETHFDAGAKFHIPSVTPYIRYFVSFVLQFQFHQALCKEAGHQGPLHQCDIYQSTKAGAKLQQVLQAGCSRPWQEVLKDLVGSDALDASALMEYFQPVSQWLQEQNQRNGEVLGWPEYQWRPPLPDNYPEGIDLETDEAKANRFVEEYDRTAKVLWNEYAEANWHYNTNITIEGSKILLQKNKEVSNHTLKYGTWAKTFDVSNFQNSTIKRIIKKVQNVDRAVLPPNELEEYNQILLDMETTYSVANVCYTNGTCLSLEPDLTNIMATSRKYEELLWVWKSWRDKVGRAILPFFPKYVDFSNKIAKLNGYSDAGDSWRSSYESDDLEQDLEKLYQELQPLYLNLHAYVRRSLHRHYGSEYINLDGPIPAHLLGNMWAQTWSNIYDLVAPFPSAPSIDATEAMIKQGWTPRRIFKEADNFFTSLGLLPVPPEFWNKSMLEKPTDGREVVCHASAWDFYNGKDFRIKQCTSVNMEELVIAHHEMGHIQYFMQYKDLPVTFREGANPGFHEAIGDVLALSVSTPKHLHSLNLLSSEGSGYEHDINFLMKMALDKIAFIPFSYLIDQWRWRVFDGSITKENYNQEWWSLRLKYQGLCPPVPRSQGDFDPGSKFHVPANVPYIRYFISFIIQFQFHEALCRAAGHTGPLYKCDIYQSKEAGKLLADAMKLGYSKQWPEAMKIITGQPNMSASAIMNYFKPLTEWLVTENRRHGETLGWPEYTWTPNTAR
Procedure: The plasmatic activity of ACE was measured by the fluorimetric method using Hip-His-Leu as substrate, as previously described (Santos, R. A. S. et al., Hypertension, 7:244-52, (1985)). Plasma aliquots (10 μL) of Wistar rats were incubated with a […] solution containing a 1 mM substrate (Hip-His-Leu) and 0.4 M of sodium borate, 0.9 M NaCl (pH=8.3) for 15 minutes at 37° C. The reaction was halted by adding 1.2 mL of NaOH at 0.34 M and […] of orthoftaldehyde (20 mg/mL in methanol). After 10 minutes at environment temperature, […] of HCl at 3 N was added. Later on, after a 5-minute 800×g centrifugation, the floating solution fluorescence was measured (a 365 nm excitation and a 495 nm emission). The blank was prepared by inverting the addition order of plasma and NaOH. A 0.5 to 20 nmol curve, containing the product (His-Leu) resulting of the substrate break (Hip-His-Leu) by ACE plasmatic activity, was prepared in each assay. In order to test the inhibition effect of ACE by the PEPTIDEs Ang-(1-7) and Ala^1-Ang-(1-7), 3.3×10^−7 or 3.3×10^−6 M of each PEPTIDE was added before the plasma addition. […] The percentage of enzymatic activity inhibition was estimated in function of the maximum activity obtained.

AT1 receptor = biological target: T2, AT1 receptor (Homo sapiens, UniProt P30556); settings: Jankowski et al. 2007; cited from earlier work
T2 sequence (P30556 1-359): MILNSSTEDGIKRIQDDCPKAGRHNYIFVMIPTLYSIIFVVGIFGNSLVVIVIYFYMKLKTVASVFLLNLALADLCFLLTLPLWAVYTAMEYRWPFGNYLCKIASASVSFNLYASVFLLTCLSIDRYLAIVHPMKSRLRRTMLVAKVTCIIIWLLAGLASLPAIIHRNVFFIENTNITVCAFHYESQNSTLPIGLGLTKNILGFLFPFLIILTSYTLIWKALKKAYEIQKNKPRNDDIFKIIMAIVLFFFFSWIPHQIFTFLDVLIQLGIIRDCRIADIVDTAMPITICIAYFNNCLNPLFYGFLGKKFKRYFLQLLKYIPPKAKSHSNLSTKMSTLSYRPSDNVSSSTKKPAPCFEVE

AT2 receptor = biological target: T3, AT2 receptor (Homo sapiens, UniProt P50052); settings: Jankowski et al. 2007; cited from earlier work
T3 sequence (P50052 1-363): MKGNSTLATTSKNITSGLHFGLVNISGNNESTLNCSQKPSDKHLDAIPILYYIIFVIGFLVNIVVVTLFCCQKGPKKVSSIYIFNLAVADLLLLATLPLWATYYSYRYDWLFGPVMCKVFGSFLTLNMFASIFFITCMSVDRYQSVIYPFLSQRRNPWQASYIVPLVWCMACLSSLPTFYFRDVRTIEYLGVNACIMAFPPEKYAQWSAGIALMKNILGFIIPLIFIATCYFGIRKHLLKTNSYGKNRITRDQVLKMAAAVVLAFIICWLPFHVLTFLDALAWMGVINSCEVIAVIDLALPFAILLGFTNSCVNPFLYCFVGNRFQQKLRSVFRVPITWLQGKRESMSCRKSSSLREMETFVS

wild-type mice = settings: Jankowski et al. 2007; cited from earlier work
Mas receptor = settings: Dong et al., Cell 2001; read-out: EC50, affinity with Mas receptor; cited from earlier work

C[C@H](N[C@@H](CCc1ccccc1)C(=O)O)C(=O)N1CCC[C@H]1C(=O)O [enalaprilate]
inhibition of the ACE activity [1]: 98%

Ala^1-Arg^2-Val^3-Tyr^4-Ile^5-His^6-Pro^7-Phe^8 (ARVYIHPF; Angiotensin-2; UniProt P01019 25-32, looked up, variant D1A) [Ala^1-Ang II]
affinity with AT1 receptor compared with Ang II (AT1 receptor): does not substantially differ from Ang II
affinity with AT2 receptor compared with Ang II (AT2 receptor): does not substantially differ from Ang II
pressor activity compared with Ang II (wild-type mice): only a fraction of the Ang II activity

NPFF: one PEPTIDE called NPFF, which had shown affinity with the Mas receptor, though reasonably feeble
EC50 (Mas receptor): ~400 nM
